Laboratory results: ChEMBL document CHEMBL1154488, “Synthesis, structure elucidation and antibacterial evaluation of new steroidal -5-en-7-thiazoloquinoxaline derivatives” (2008)
Converted amounts (≈) assume the structure as drawn.

What was measured:
Assay type in all cases: functional
Escherichia coli [1] = experiment: Antibacterial activity against Escherichia coli after 18 hrs by disk diffusion method
Escherichia coli [2] = experiment: Antibacterial activity against Escherichia coli after 18 hrs by macrodilution test
Escherichia coli [3] = experiment: Antibacterial activity against Escherichia coli at 30 ug/disk after 18 hrs by disk diffusion method; details: read-out: IZ

Row | MIC (Escherichia coli [2]) | SMILES | inhibition zone (IZ) (Escherichia coli [1]) | zone of inhibition at 30 µg/disc (Escherichia coli [3])
1 | 256 µg/mL (≈ 559 µM) | CC(C)CCC[C@@H](C)[C@H]1CC[C@H]2[C@@H]3/C(=N/NC(N)=S)C=C4CCCC[C@]4(C)[C@H]3CC[C@]12C | 9.8 mm | 
2 | 64 µg/mL (≈ 130 µM) | CC(C)CCC[C@@H](C)[C@H]1CC[C@H]2[C@@H]3/C(=N/NC(N)=S)C=C4C[C@@H](Cl)CC[C@]4(C)[C@H]3CC[C@]12C | 14.8 mm | 
3 | 512 µg/mL (≈ 1320 µM) | CC(C)CCC[C@@H](C)[C@H]1CC[C@H]2[C@@H]3CC=C4C[C@@H](O)CC[C@]4(C)[C@H]3CC[C@]12C [CHOLESTEROL] | 5.8 mm | 

Continued, compound first:

Row | SMILES | MIC (Escherichia coli [2]) | inhibition zone (IZ) (Escherichia coli [1]) | zone of inhibition at 30 µg/disc (Escherichia coli [3])
4 | Clc1nc2ccccc2nc1Cl | 512 µg/mL (≈ 2570 µM) | 6.2 mm | 
5 | CC(C)CCC[C@@H](C)[C@H]1CC[C@H]2[C@@H]3/C(=N/Nc4nc5nc6ccccc6nc5s4)C=C4C[C@@H](Cl)CC[C@]4(C)[C@H]3CC[C@]12C | 32 µg/mL (≈ 51.8 µM) | 22.4 mm | 
6 | CC(=O)O[C@H]1CC[C@@]2(C)C(=C/C(=N\NC(N)=S)[C@H]3[C@@H]4CC[C@H]([C@H](C)CCCC(C)C)[C@@]4(C)CC[C@@H]32)C1 | 128 µg/mL (≈ 248 µM) | 13.2 mm | 
7 | CC(C)CCC[C@@H](C)[C@H]1CC[C@H]2[C@@H]3/C(=N/Nc4nc5nc6ccccc6nc5s4)C=C4CCCC[C@]4(C)[C@H]3CC[C@]12C | 128 µg/mL (≈ 219 µM) | 14 mm | 
8 | CC(=O)O[C@H]1CC[C@@]2(C)C(=C/C(=N\Nc3nc4nc5ccccc5nc4s3)[C@H]3[C@@H]4CC[C@H]([C@H](C)CCCC(C)C)[C@@]4(C)CC[C@@H]32)C1 | 64 µg/mL (≈ 99.7 µM) | 20.8 mm | 
9 | O=C(N[C@H](CO)[C@H](O)c1ccc([N+](=O)[O-])cc1)C(Cl)Cl [CHLORAMPHENICOL] | 32 µg/mL (≈ 99 µM) |  | 20 mm
